{"source": "patent US8178506B2", "about": "“Oligomeric compounds and compositions for use in modulation of small non-coding RNAs” (Regulus Therapeutics Inc., priority 2003, dated 2012)", "key": {"PPARγ": {"test_system": "PPARγ", "assay": "PPARγ mRNA expression in adipocytes (real-time PCR)", "assay_type": "cell-based, human", "conditions": "differentiating adipocytes transfected with oligomeric compound; Table 75"}, "IGFBP-1": {"test_system": "IGFBP-1", "assay": "IGFBP-1 mRNA expression in HepG2 cells", "assay_type": "cell-based, human", "conditions": "for IGFBP1 mRNA expression: Experiment 2, insulin treated: HepG2 cells transfected with oligomeric compound, 1 nM insulin for four hours, UTC + 1 nM insulin = 100; for IGFBP1 mRNA: HepG2 cells, Experiment 1, basal (no insulin), four hours, UTC = 100"}}, "note": "In the oligonucleotide strings, read from the 5' end, every base follows the letter of its sugar. An asterisk marks phosphorothioate; unmarked linkages are phosphodiester. Other units and linkages are bracketed, terminal groups are in braces. A string of capitals states the bases alone. e = 2'-O-(2-methoxyethyl) (MOE); [5mC] = 5-methylcytosine"}
{"substance": "327965 (antisense eA*eT*e[5mC]*eA*e[5mC]*eA*eT*eA*eG*eG*eA*eA*eT*eA*eA*eA*eA*eA*eG*e[5mC]*e[5mC]*eA*eT*eA) [compound 327965]", "values": [{"measurement": "PPAR gamma mRNA", "setting": "PPARγ", "result": "91 percentage of untreated control (UTC)"}, {"measurement": "IGFBP1 mRNA expression", "setting": "IGFBP-1", "result": 105}, {"measurement": "IGFBP1 mRNA", "setting": "IGFBP-1", "result": 106}]}
{"substance": "327959 (antisense e[5mC]*eA*eG*e[5mC]*e[5mC]*eG*e[5mC]*eT*eG*eT*e[5mC]*eA*e[5mC]*eA*e[5mC]*eG*e[5mC]*eA*e[5mC]*eA*eG) [compound 327959]", "values": [{"measurement": "PPAR gamma mRNA", "setting": "PPARγ", "result": "65 percentage of untreated control (UTC)"}, {"measurement": "IGFBP1 mRNA expression", "setting": "IGFBP-1", "result": 141}, {"measurement": "IGFBP1 mRNA", "setting": "IGFBP-1", "result": 124}]}
{"substance": "327952 (antisense e[5mC]*eT*eA*e[5mC]*eG*e[5mC]*eG*eT*eA*eT*eT*e[5mC]*eT*eT*eA*eA*eG*e[5mC]*eA*eA*eT*eA) [compound 327952]", "values": [{"measurement": "PPAR gamma mRNA", "setting": "PPARγ", "result": "84 percentage of untreated control (UTC)"}, {"measurement": "IGFBP1 mRNA expression", "setting": "IGFBP-1", "result": 103}, {"measurement": "IGFBP1 mRNA", "setting": "IGFBP-1", "result": 123}]}
{"substance": "327971 (antisense eG*eG*eA*eA*eA*eT*e[5mC]*e[5mC]*e[5mC]*eT*eG*eG*e[5mC]*eA*eA*eT*eG*eT*eG*eA*eT) [compound 327971]", "values": [{"measurement": "PPAR gamma mRNA", "setting": "PPARγ", "result": "69 percentage of untreated control (UTC)"}]}
{"substance": "327958 (antisense e[5mC]*e[5mC]*eG*eG*e[5mC]*eT*eG*e[5mC]*eA*eA*e[5mC]*eA*e[5mC]*eA*eA*eG*eA*e[5mC]*eA*e[5mC]*eG*eA) [compound 327958]", "values": [{"measurement": "PPAR gamma mRNA", "setting": "PPARγ", "result": "55 percentage of untreated control (UTC)"}, {"measurement": "IGFBP1 mRNA expression", "setting": "IGFBP-1", "result": 149}, {"measurement": "IGFBP1 mRNA", "setting": "IGFBP-1", "result": 119}]}
{"substance": "327945 (antisense e[5mC]*eT*eG*eT*eT*e[5mC]*e[5mC]*eT*eG*e[5mC]*eT*eG*eA*eA*e[5mC]*eT*eG*eA*eG*e[5mC]*e[5mC]*eA) [compound 327945]", "values": [{"measurement": "PPAR gamma mRNA", "setting": "PPARγ", "result": "51 percentage of untreated control (UTC)"}]}
{"substance": "327950 (antisense eT*e[5mC]*eA*eG*eT*eT*eT*eT*eG*e[5mC]*eA*eT*eA*eG*eA*eT*eT*eT*eG*e[5mC]*eA*e[5mC]*eA) [compound 327950]", "values": [{"measurement": "PPAR gamma mRNA", "setting": "PPARγ", "result": "93 percentage of untreated control (UTC)"}, {"measurement": "IGFBP1 mRNA expression", "setting": "IGFBP-1", "result": 124}, {"measurement": "IGFBP1 mRNA", "setting": "IGFBP-1", "result": 109}]}
{"substance": "327944 (antisense eA*eA*eA*eG*eT*eG*eT*e[5mC]*eA*eG*eA*eT*eA*e[5mC]*eG*eG*eT*eG*eT*eG*eG) [compound 327944]", "values": [{"measurement": "PPAR gamma mRNA", "setting": "PPARγ", "result": "64 percentage of untreated control (UTC)"}]}
{"substance": "327946 (antisense eA*eG*eG*e[5mC]*eG*eA*eA*eG*eG*eA*eT*eG*eA*e[5mC]*eA*eA*eA*eG*eG*eG*eA*eA) [compound 327946]", "values": [{"measurement": "PPAR gamma mRNA", "setting": "PPARγ", "result": "81 percentage of untreated control (UTC)"}, {"measurement": "IGFBP1 mRNA expression", "setting": "IGFBP-1", "result": 138}, {"measurement": "IGFBP1 mRNA", "setting": "IGFBP-1", "result": 108}]}
{"substance": "327949 (antisense e[5mC]*eA*e[5mC]*eA*eA*eA*eT*eT*e[5mC]*eG*eG*eA*eT*e[5mC]*eT*eA*e[5mC]*eA*eG*eG*eG*eT*eA) [compound 327949]", "values": [{"measurement": "PPAR gamma mRNA", "setting": "PPARγ", "result": "54 percentage of untreated control (UTC)"}, {"measurement": "IGFBP1 mRNA expression", "setting": "IGFBP-1", "result": 172}, {"measurement": "IGFBP1 mRNA", "setting": "IGFBP-1", "result": 112}]}
{"substance": "327957 (antisense e[5mC]*eA*e[5mC]*eA*eA*eG*eT*eT*e[5mC]*eG*eG*eA*eT*e[5mC]*eT*eA*e[5mC]*eG*eG*eG*eT*eT) [compound 327957]", "values": [{"measurement": "PPAR gamma mRNA", "setting": "PPARγ", "result": "68 percentage of untreated control (UTC)"}, {"measurement": "IGFBP1 mRNA expression", "setting": "IGFBP-1", "result": 184}, {"measurement": "IGFBP1 mRNA", "setting": "IGFBP-1", "result": 143}]}
{"substance": "327963 (antisense eA*eA*e[5mC]*e[5mC]*eT*eA*eT*e[5mC]*e[5mC]*eT*eG*eA*eA*eT*eT*eA*e[5mC]*eT*eT*eG*eA*eA) [compound 327963]", "values": [{"measurement": "PPAR gamma mRNA", "setting": "PPARγ", "result": "91 percentage of untreated control (UTC)"}, {"measurement": "IGFBP1 mRNA expression", "setting": "IGFBP-1", "result": 111}, {"measurement": "IGFBP1 mRNA", "setting": "IGFBP-1", "result": 108}]}
{"substance": "327935 (antisense e[5mC]*eT*eA*e[5mC]*e[5mC]*eT*eG*e[5mC]*eA*e[5mC]*eT*eA*eT*eA*eA*eG*e[5mC]*eA*e[5mC]*eT*eT*eT*eA) [compound 327935]", "values": [{"measurement": "PPAR gamma mRNA", "setting": "PPARγ", "result": "67 percentage of untreated control (UTC)"}]}
{"substance": "327961 (antisense eG*eG*eG*eG*eT*eA*eT*eT*eT*eG*eA*e[5mC]*eA*eA*eA*e[5mC]*eT*eG*eA*e[5mC]*eA) [compound 327961]", "values": [{"measurement": "PPAR gamma mRNA", "setting": "PPARγ", "result": "95 percentage of untreated control (UTC)"}, {"measurement": "IGFBP1 mRNA expression", "setting": "IGFBP-1", "result": 160}, {"measurement": "IGFBP1 mRNA", "setting": "IGFBP-1", "result": 150}]}
{"substance": "327873 (antisense e[5mC]*eT*eA*e[5mC]*e[5mC]*eA*eT*eA*eG*eG*eG*eT*eA*eA*eA*eA*e[5mC]*e[5mC]*eA*e[5mC]*eT) [compound 327873]", "values": [{"measurement": "PPAR gamma mRNA", "setting": "PPARγ", "result": "104 percentage of untreated control (UTC)"}, {"measurement": "IGFBP1 mRNA", "setting": "IGFBP-1", "result": 108}]}
{"substance": "327936 (antisense eA*e[5mC]*eA*eG*e[5mC]*eT*eG*eG*eT*eT*eG*eA*eA*eG*eG*eG*eG*eA*e[5mC]*e[5mC]*eA*eA) [compound 327936]", "values": [{"measurement": "PPAR gamma mRNA", "setting": "PPARγ", "result": "47 percentage of untreated control (UTC)"}]}
{"substance": "327964 (antisense e[5mC]*e[5mC]*eA*eA*eG*eT*eT*e[5mC]*eT*eG*eT*e[5mC]*eA*eT*eG*e[5mC]*eA*e[5mC]*eT*eG*eA) [compound 327964]", "values": [{"measurement": "PPAR gamma mRNA", "setting": "PPARγ", "result": "93 percentage of untreated control (UTC)"}, {"measurement": "IGFBP1 mRNA expression", "setting": "IGFBP-1", "result": 121}, {"measurement": "IGFBP1 mRNA", "setting": "IGFBP-1", "result": 100}]}
{"substance": "327940 (antisense eG*eA*eA*e[5mC]*eA*eG*eG*eT*eA*eG*eT*e[5mC]*eT*eG*eA*eA*e[5mC]*eA*e[5mC]*eT*eG*eG*eG) [compound 327940]", "values": [{"measurement": "PPAR gamma mRNA", "setting": "PPARγ", "result": "64 percentage of untreated control (UTC)"}]}
